Assays:
PiAHAS wild-type [1] = molecular target: T1, PiAHAS wild-type (Parietochloris incisa (Lobosphaera incisa), UniProt I3VJH2, D350G/R415C); assay: PiAHAS in vitro enzyme assay, inhibition by SMM (wild type); format: biochemical; details: wild type; very low concentration of SMM
T1 sequence (I3VJH2 1-707 D350G/R415C): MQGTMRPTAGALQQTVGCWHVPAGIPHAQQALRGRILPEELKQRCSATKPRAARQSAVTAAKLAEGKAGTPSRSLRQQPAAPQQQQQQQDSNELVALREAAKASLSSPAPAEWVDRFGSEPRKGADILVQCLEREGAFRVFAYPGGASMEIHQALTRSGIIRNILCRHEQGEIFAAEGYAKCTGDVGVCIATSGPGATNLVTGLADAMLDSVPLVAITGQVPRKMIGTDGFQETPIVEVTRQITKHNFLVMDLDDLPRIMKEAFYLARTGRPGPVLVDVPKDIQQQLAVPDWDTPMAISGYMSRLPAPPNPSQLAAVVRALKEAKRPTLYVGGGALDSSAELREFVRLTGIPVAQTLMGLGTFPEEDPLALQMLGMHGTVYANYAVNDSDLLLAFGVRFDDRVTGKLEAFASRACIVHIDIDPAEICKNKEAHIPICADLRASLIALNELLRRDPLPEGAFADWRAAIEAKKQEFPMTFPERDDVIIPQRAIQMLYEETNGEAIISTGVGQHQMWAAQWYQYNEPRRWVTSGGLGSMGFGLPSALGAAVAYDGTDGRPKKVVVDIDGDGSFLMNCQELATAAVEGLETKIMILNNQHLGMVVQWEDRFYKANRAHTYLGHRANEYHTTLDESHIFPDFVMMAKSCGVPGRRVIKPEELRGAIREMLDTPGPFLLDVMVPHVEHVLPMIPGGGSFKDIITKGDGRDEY
Experimental: (§1) To overexpress the hexahistidine (6xHis)-tagged PiAHAS genes in E. coli strain JM109, plasmids pQE-WT and pQE-MUT were used. These plasmids were constructed by inserting the BamHI-SalI fragment containing the cloned PiAHAS wt and mutant genes into plasmid pQE30 (Qiagen, Hilden, Germany). These plasmids express PiAHAS fused at its N-terminus to the pQE30 6xHis leader. pQE-WT and pQE-MUT were transformed into E. coli for expression. […] The AHAS catalytic activity was determined as previously described (Bar-Ilan A et al. Binding and activation of thiamin diphosphate in acetohydroxyacid synthase. Biochemistry (N.Y.) 2001, 40, 11946-11954). […] Km for pyruvate and Ki for SMM were determined by varying the concentration of the factor in question. Protein concentration was determined by the dye-binding method of Bradford (Bradford MM. A rapid and sensitive method for the quantitation of microgram quantities of protein utilizing the principle of protein-dye binding. Anal. Biochem. 1976, 72, 248-254), with bovine serum albumin as standard. […]
(§2) The Ki was determined to be >30×106, 7 orders of magnitude higher than that of the wild type.

PiAHAS wild-type [2] = molecular target: T2, PiAHAS wild-type (Parietochloris incisa (Lobosphaera incisa), UniProt I3VJH2); assay: as above; format: biochemical; details: wild-type AHAS; pyruvate 100 mM; 37° C., pH 7.6
T2 sequence (I3VJH2 1-707 D350G/R415C): T1 sequence (I3VJH2 1-707 D350G/R415C)
Experimental: as §1, §2

PiAHAS mutant W605S = molecular target: T3, PiAHAS mutant W605S (Lobosphaera incisa, UniProt I3VJH2, W604S); assay: PiAHAS in vitro enzyme assay, inhibition by SMM (mutant); format: biochemical, Parietochloris incisa; details: even at high concentrations of 200 μM
T3 sequence (I3VJH2 with tags, fused parts or gaps W604S): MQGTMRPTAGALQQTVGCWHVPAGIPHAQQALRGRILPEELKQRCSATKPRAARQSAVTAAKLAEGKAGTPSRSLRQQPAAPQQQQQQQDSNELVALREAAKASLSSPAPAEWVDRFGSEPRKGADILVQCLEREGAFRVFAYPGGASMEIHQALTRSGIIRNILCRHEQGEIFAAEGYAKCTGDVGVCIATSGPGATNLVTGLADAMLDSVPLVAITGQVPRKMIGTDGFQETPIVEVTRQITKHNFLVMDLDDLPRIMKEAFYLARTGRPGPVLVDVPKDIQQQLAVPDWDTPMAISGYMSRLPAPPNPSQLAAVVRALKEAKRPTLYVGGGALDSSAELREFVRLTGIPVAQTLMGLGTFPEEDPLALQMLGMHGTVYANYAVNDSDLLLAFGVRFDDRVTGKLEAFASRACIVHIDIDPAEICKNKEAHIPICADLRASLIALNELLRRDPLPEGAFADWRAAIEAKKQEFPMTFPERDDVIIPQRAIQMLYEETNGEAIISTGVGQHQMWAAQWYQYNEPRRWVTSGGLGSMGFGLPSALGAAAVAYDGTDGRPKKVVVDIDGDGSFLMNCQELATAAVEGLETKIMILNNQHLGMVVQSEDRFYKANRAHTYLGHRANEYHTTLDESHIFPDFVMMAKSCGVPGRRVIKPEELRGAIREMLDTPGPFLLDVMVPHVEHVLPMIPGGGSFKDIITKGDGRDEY
Experimental: as §1, §2

## COC(=O)c1ccccc1S(=O)(=O)NC(=O)Nc1nc(C)cc(C)n1 [SMM, sulfometuron methyl]
PiAHAS wild-type [1]
  inhibition of enzyme by SMM: strongly inhibited
PiAHAS wild-type [2]
  Ki: 0.15 µM
PiAHAS mutant W605S
  inhibition of enzyme by SMM: strong resistance

— US9267129B2, “Compositions and methods for conferring herbicide resistance” (BEN-GURION UNIVERSITY OF THE NEGEV RESEARCH AND DEVELOPMENT …, priority 2011, dated 2016)
